Patent US20100311748A1, “HETEROCYCLIC AMIDES USEFUL FOR THE TREATMENT OF CANCER AND PSORIASIS” (ASTRAZENECA AB, priority 2007, published 2010)

The molecules below were run on Hedgehog pathway (assay: Hedgehog Pathway Cellular Differentiation Assay (alkaline phosphatase production in C3H10T1/2 cells with Shh ligand)). Conditions: 3 μM compound, Shh ligand conditioned media, 72 h, alkaline phosphatase.
Format: cell-based
Description: Hedgehog Pathway Cellular Differentiation Assay The ability of compounds of the invention to inhibit the Hedgehog pathway can be determined by the following cell differentiation assay. C3H10T1/2 cells were plated into 384 well plates at a concentration of 5000 cells/well in DMEM/10% FBS. The following day the media was changed to 20% conditioned media (low serum media DMEM/2% FBS+Shh ligand). Compounds were solubilized in 100% DMSO to a concentration of 10 mM and then serially diluted three fold in 100% DMSO. The highest concentration in the cell plate was 30 μM and the lowest was 3 nM. The compounds were then added to the cells. Cell plates were incubated with the compound for 72 h and then assayed for alkaline phosphatase production using pNp as a substrate. Briefly, after 72 h of incubation, the media was aspirated from the cells and washed with 30 μl of PBS. PBS was aspirated off the cells and 15 μl of 1×RIPA cell lysis buffer is added on to the cells. The cell plates are then incubated at −80° C. for 30 minutes to insure proper cell lysis. The plates were then thawed back to RT. The substrate solution containing pNp at 1 mg/mL in diethanolamine buffer pH 9.8 was then added onto the lysed cells. The plates were incubated at 30° C. for color development and read at an absorbance of 405 nm. The percent inhibition and IC50 value was then calculated from the absorbance data using standard procedures.

| Compound | % Inhibition at 3 μM |
| --- | --- |
| Cc1ccc(-c2ncc[nH]2)cc1NC(=O)c1ccc(OCc2cccc(OCCO)n2)cc1 [Example 122] | 84.6% |
| Cc1ccc(-c2ncc[nH]2)cc1NC(=O)c1ccc2c(c1)OCCN2C [Example 149, N-[5-(1H-imidazol-2-yl)-2-methyl-phenyl]-2-methyl-5-oxa-2-azabicyclo[4.4.0]deca-7,9,11-triene-8-carboxamide] | 63.4% |

Same assay, conditions: Mus musculus, C3H 10T1/2, 3 μM compound, Shh ligand conditioned media, 72 h, alkaline phosphatase

| Compound | inhibition at 3 µM |
| --- | --- |
| Cc1ccc(-c2nc(C(C)(C)C)c[nH]2)cc1NC(=O)c1ccc(OCc2ccccn2)cc1 [Example 86, N-[5-(4-tert-butyl-1H-imidazol-2-yl)-2-methylphenyl]-4-(pyridin-2-ylmethoxy)benzamide] | 85.7% |
| Cc1nc(C)c(-c2ccc(C)c(NC(=O)c3ccc(OCc4ccccn4)cc3)c2)s1 [Example 32, N-[5-(2,4-dimethyl1,3-thiazol-5-yl)-2-methyl-phenyl]-4-(pyridin-2-ylmethoxy)benzamide] | 54.1% |
| Cc1ccc(-c2ncc[nH]2)cc1NC(=O)c1ccc(NCc2ccc(N3CCOCC3)cn2)cc1 [Example 140, N-(5-(1H-imidazol-2-yl)-2-methylphenyl)-4-((5-morpholinopyridin-2-yl)methylamino)benzamide] | 85.5% |
| Cc1cc(C)c(-c2cn(C)cn2)cc1NC(=O)c1ccc(OCc2ccccn2)cc1 [Example 71, N-[2,4-dimethyl-5-(1-methyl-1H-imidazol-4-yl)phenyl]-4-(pyridin-2-ylmethoxy)benzamide] | 84.9% |
| Cc1ccc(-c2ncc[nH]2)cc1NC(=O)c1ccc(OCc2ccccc2C#N)cc1 [Example 46, 4-[(2-cyanophenyl)methoxy]-N-[5-(1H-imidazol-2-yl)-2-methyl-phenyl]benzamide] | 81.9% |
| Cc1ccc(-c2ncc[nH]2)cc1NC(=O)c1ccc(OCc2cccc(C#N)c2)cc1 [Example 61, 4-[(3-cyanobenzyl)oxy]-N-[5-(1H-imidazol-2-yl)-2-methylphenyl]benzamide] | 82.1% |
| Cc1c[nH]c(-c2ccc(C)c(NC(=O)c3ccc(OCc4ccccc4C#N)cc3)c2)n1 [Example 44, 4-[(2-cyanophenyl)methoxy]-N-[2-methyl-5-(4-methyl-1H-imidazol-2-yl)phenyl]benzamide] | 80.7% |
| Cc1ccc(-c2nnc(C)n2C)cc1NC(=O)c1ccc(OCc2ccccn2)cc1 [Example 39, N-(5-(4,5-dimethyl-4H-1,2,4-triazol-3-yl)-2-methylphenyl)-4-(pyridin-2-ylmethoxy)benzamide] | 7.8% |
| COc1ccc(C(=O)Nc2cc(-c3ncc[nH]3)ccc2C)cc1OC [Example 154, N-[5-(1H-imidazol-2-yl)-2-methyl-phenyl]-3,4-dimethoxy-benzamide] | 17.6% |
| Cc1ccc(-c2ncc[nH]2)cc1NC(=O)c1ccc(OCc2cc(N(C)C)ccn2)cc1 [Example 127, 4-{[4-(dimethylamino)pyridin-2-yl]methoxy}-N-[5-(1H-imidazol-2-yl)-2-methylphenyl]benzamide] | 76.3% |
| Cc1ccc(-c2nccn2C)cc1NC(=O)c1ccc(OCc2cc(N(C)CCN(C)C)ccc2C#N)cc1 [Example 116, 4-[(2-cyano-5-{[2-(dimethylamino)ethyl](methyl)amino}benzyl)oxy]-N-[2-methyl-5-(1-methyl-1H-imidazol-2-yl)phenyl]benzamide] | 83.4% |
| Cc1ccc(-c2ccnn2C)cc1NC(=O)c1ccc(OCc2ccccn2)cc1 [Example 34, N-[2-methyl-5-(2-methylpyrazol-3-yl)phenyl]-4-(pyridin-2-ylmethoxy)benzamide] | 69.4% |
| Cc1ccc(-c2ncc[nH]2)cc1NC(=O)c1cccc(N(C)C)c1 [Example 148, 3-dimethylamino-N-[5-(1H-imidazol-2-yl)-2-methyl-phenyl]benzamide] | 9.1% |
| COc1cccc(COc2ccc(C(=O)Nc3cc(-c4ncc[nH]4)ccc3C)cc2)c1 [Example 41, N-(5-(1H-imidazol-2-yl)-2-methylphenyl)-4-(3-methoxybenzyloxy)benzamide] | 51.9% |
| Cc1ccc(-c2ncc(C)n2C)cc1NC(=O)c1ccc(OCc2ccccn2)cc1 [Example 20, N-[5-(1,5-dimethylimidazol-2-yl)-2-methyl-phenyl]-4-(pyridin-2-ylmethoxy)benzamide] | 58.1% |
| Cc1ccc(-c2c[nH]cn2)cc1NC(=O)c1ccc(OCc2ccccn2)cc1 [Example 1, N-[5-(1H-imidazol-4-yl)-2-methyl-phenyl]-4-(pyridin-2-ylmethoxy)benzamide] | 64.9% |
| Cc1ccc(-c2ncc[nH]2)cc1NC(=O)c1ccc(OC(C)c2ccccn2)cc1 (stereo not shown) [Example 110, N-[5-(1H-imidazol-2-yl)-2-methylphenyl]-4-(1-pyridin-2-ylethoxy)benzamide] | 92.3% |

| Compound | inhibition at 3 µM |
| --- | --- |
| Cc1ccc(-c2nc3ccccc3[nH]2)cc1NC(=O)c1ccc(OCc2ccccn2)cc1 [Example 30, N-[5-(1H-benzoimidazol-2-yl)-2-methyl-phenyl]-4-(pyridin-2-ylmethoxy)benzamide] | 80.1% |
| COc1cc(COc2ccc(C(=O)Nc3cc(-c4ncc[nH]4)ccc3C)cc2)cc(OC)c1 [Example 47, 4-[(3,5-dimethoxyphenyl)methoxy]-N-[5-(1H-imidazol-2-yl)-2-methyl-phenyl]benzamide] | 80.9% |
| Cc1ccc(-c2ncc[nH]2)cc1NC(=O)c1ccc(OCc2ccccn2)cc1 [Example 29, N-[5-(1H-imidazol-2-yl)-2-methyl-phenyl]-4-(pyridin-2-ylmethoxy)benzamide] | 75.3% |
| Cc1ccc(-c2ncc[nH]2)cc1NC(=O)c1ccc(OCc2ccc(F)cc2)cc1 [Example 59, 4-[(4-Fluorophenyl)methoxy]-N-[5-(1H-imidazol-2-yl)-2-methylphenyl]benzamide] | 82.5% |
| Cc1ccc(-c2ncc[nH]2)cc1NC(=O)c1ccc(OCc2ccc(N3CCN(C)CC3)cn2)cc1 [Example 155, N-[5-(1H-imidazol-2-yl)-2-methylphenyl]-4-{[5-(4-methylpiperazin-1-yl)pyridin-2-yl]methoxy}benzamide] | 83.3% |
| Cc1ccc(-c2nccn2C)cc1NC(=O)c1ccc(OCc2cc(F)ccc2C#N)cc1 [Example 101, 4-[(2-cyano-5-fluorobenzyl)oxy]-N-[2-methyl-5-(1-methyl-1H-imidazol-2-yl)phenyl]benzamide] | 83.5% |
| Cc1ccc(-c2ncc[nH]2)cc1NC(=O)c1ccc(COc2ccccn2)cc1 [Example 134, N-[5-(1H-imidazol-2-yl)-2-methylphenyl]-4-[(pyridin-2-yloxy)methyl]benzamide] | 77.3% |
| Cc1cc(C)c(-c2nc3ccccc3[nH]2)cc1NC(=O)c1ccc(OCc2ccccn2)cc1 [Example 68, N-[5-(1H-benzimidazol-2-yl)-2,4-dimethylphenyl]-4-(pyridin-2-ylmethoxy)benzamide] | 83.3% |
| Cc1ccc(-c2ncc[nH]2)cc1NC(=O)c1ccc(OCc2ccccn2)nc1 [Example 111, N-[5-(1H-imidazol-2-yl)-2-methylphenyl]-6-(pyridin-2-ylmethoxy)pyridine-3-carboxamide] | -0.1% |
| Cc1cn(C)c(-c2ccc(C)c(NC(=O)c3ccc(OCc4ccccc4C#N)cc3)c2)n1 [Example 45, 4-[(2-cyanophenyl)methoxy]-N-[5-(1,4-dimethylimidazol-2-yl)-2-methyl-phenyl]benzamide] | 80.3% |
| Cc1ccc(-c2nccn2C)cc1NC(=O)c1ccc(OCc2ccc(F)cc2C#N)cc1 [Example 100, 4-[(2-cyano-4-fluorobenzyl)oxy]-N-[2-methyl-5-(1-methyl-1H-imidazol-2-yl)phenyl]benzamide] | 82.7% |
| Cc1ccc(-c2ncc(CN3CCOCC3)s2)cc1NC(=O)c1ccc(OCc2ccccn2)cc1 [Example 12, N-[2-methyl-5-[5-(morpholin-4-ylmethyl)1,3-thiazol-2-yl]phenyl]-4-(pyridin-2-ylmethoxy)benzamide] | 74.2% |
| COc1ccnc(COc2ccc(C(=O)Nc3cc(-c4ncc[nH]4)ccc3C)cc2)c1 [Example 92, N-[5-(1H-imidazol-2-yl)-2-methylphenyl]-4-[(4-methoxypyridin-2-yl)methoxy]benzamide] | 76% |
| Cc1ccc(-c2nc[nH]c2C)cc1NC(=O)c1ccc(OCc2ccccc2C#N)cc1 [Example 54, 4-[(2-cyanophenyl)methoxy]-N-[2-methyl-5-(5-methyl-1H-imidazol-4-yl)phenyl]benzamide] | 77.5% |
| Cc1ccc(-c2ncc[nH]2)cc1NC(=O)c1cccc(Cl)c1 [Example 152, 3-chloro-N-[5-(1H-imidazol-2-yl)-2-methyl-phenyl]benzamide] | 45.3% |
| CCOC(=O)c1sc(-c2ccc(C)c(NC(=O)c3ccc(OCc4ccccn4)cc3)c2)nc1C [Example 19, ethyl 4-methyl-2-[4-methyl-3-[[4-(pyridin-2-ylmethoxy)benzoyl]amino]phenyl]1,3-thiazole-5-carboxylate] | 52% |
| Cc1nc(-c2cc(NC(=O)c3ccc(OCc4ccccn4)cc3)c(C)cc2F)c[nH]1 [Example 103, N-[4-fluoro-2-methyl-5-(2-methyl-1H-imidazol-4-yl)phenyl]-4-(pyridin-2-ylmethoxy)benzamide] | 85.6% |

Same assay, conditions: Mus musculus, C3H 10T1/2, Shh ligand conditioned media, 72 h, alkaline phosphatase (pNp, 405 nm)

| IC50 | Compound |
| --- | --- |
| < 3 nM | Cc1ccc(-c2ncc(C)n2C)cc1NC(=O)c1ccc(OCc2ccccn2)cc1 [Example 20, N-[5-(1,5-dimethylimidazol-2-yl)-2-methyl-phenyl]-4-(pyridin-2-ylmethoxy)benzamide] |
